According to patent US20050282818A1, “Ubiquitin ligase inhibitors” (Rigel Pharmaceuticals, Inc., priority 2004, published 2005):
pIC50: −log10 of the molar value. Like-named read-outs stand apart in the source and are kept apart here.

What was measured:
TRAF6/Uev1A/Ubc13 = target: T1, TRAF6/Uev1A/Ubc13 (Homo sapiens, UniProt Q9Y4K3); assay: TRAF6/Uev1A/Ubc13 plate-based ubiquitin ligase assay; type: biochemical
T1 sequence (Q9Y4K3 1-522): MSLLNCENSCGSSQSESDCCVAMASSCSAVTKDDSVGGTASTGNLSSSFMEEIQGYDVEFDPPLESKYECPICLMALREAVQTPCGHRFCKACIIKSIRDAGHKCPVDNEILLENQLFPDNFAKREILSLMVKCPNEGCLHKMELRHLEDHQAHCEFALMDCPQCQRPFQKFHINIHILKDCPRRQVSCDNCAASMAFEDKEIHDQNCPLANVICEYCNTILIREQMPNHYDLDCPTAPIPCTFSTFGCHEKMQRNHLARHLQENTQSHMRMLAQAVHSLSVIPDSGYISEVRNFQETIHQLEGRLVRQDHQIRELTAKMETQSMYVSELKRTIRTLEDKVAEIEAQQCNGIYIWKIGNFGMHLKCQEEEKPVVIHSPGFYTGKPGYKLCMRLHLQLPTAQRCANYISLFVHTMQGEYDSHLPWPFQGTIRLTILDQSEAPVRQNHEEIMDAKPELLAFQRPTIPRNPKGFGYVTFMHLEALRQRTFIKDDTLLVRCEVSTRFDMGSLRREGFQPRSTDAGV
Outline: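 Ligase activity was read as luminescence from anti-Flag/HRP detection of Flag-ubiquitin bound to casein-blocked Ni-plates alongside His-ubiquitin after a 1 h room-temperature reaction. Buffer: 62.5 mM Tris pH 7.5, 6.25 mM MgCl2, 1.0 mM DTT, 2 μM ATP; E1, Uev1a/Ubc13 and TRAF6 added last to start. IC50s derived across compound concentrations.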

[1] = system: ICAM-1 expression in A549 cells; assay: ICAM assay (IL-1 induced ICAM-1/CD54 expression in A549 cells); type: cell-based, human; conditions: Homo sapiens, A549, ICAM assay
From the text: The expression of intercellular adhesion molecule (ICAM)-1 in endothelial cells is pivotal in supporting lymphocyte migration across the vascular endothelium. TNF/IL-1 induces the NF-kB pathway in which NF-kB acts as a transcription factor and activation of NF-kB induces ICAM expression. IkB inhibits NF-KB by binding to it and retaining NF-kB in the cytoplasm. Upon cytokine stimulation, several signaling molecule including TRAF6, IKKs, and TAK1 are activated which lead to the phosphorylation of IkB. Phosphorylated IkB is then ubiquitinated by the SCF complex and degraded by proteasome, thereby releasing NF-kB to translocate into the nucleus. In the nucleus, NF-kB binds to DNA and activates transcription of various genes that are involved in inflammation, cell survival, and apoptosis. The ICAM assay is a primary assay for HTS as well as a cell based assay for TRAF6 inhibitors.
The following materials are used 96-well plates; F12K complete medium that includes 10% FBS and 1% P/S (penicillin/streptomycin); 1×PBS; 5 ug/ml IL-1, Human CD54 (CALTAG Laboratory, Cat#MHCD5400-4); anti-mouse-IgG (Jackson Lab, Cat#115-035 146); and A549 cells.
Procedure. 10,000 A549 cells/well were seeded in 100 μl F12K complete medium in a 96-well white plate. The seeded plate was incubate at 37° C. incubator in 5% CO2 overnight. After the overnight incubation, 4 μl of diluted test compound was added and incubated for 1 hour at 37° C. After the 1 hour incubation, 4 μl of 25 ng/ml IL-1 was added to each well and the cells were stimulated at 37° C. for 4 hours.
After stimulation, the cells were stained with CD54 (1:1000 diluted with medium) and anti-mouse IgG (1:1100 diluted with medium) for 1 hour. Subsequently, the medium was removed and each well was washed with 200 μl of PBS three times. Detection of activity was performed by addition of 100 μl/well of lumino substrate.

H1299 cells = assay: Cell proliferation PAD assay, H1299; type: cell-based; conditions: Homo sapiens, 48 hours
Outline: (§1)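 Each line, seeded at 2,000 cells/well, received duplicate 6.3-fold compound dilutions (10 mM stock, diluted 500× into medium) one day after plating. Exposure lasted 48 h; fixed cells were DAPI-stained and photographed, and images were analysed for live, apoptotic and dead cell numbers.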

A549 cells = assay: Cell proliferation PAD assay, A549; type: cell-based; conditions: Homo sapiens, 48 hours
Outline: as §1

[2] = NCI-H1299, 6pt, read-out: H1299 6pt
[3] = NCI-H1299, 3pt, read-out: H1299 3pt

| Structure (SMILES) | pIC50 (TRAF6/Uev1A/Ubc13) | pIC50 [1] | pIC50 (H1299 cells; [2]) | pIC50 (A549 cells; 6pt, read-out: A549 6pt) | pIC50 (H1299 cells; [3]) | pIC50 (A549 cells; 3pt, read-out: A549 3pt) |
| --- | --- | --- | --- | --- | --- | --- |
| O=S(=O)(c1c(Cl)ccc2nonc12)N1CCN(c2ccc(Cl)c(C(F)(F)F)c2)CC1 [compound 182, 5-chloro-4-({4-[4-chloro-3-(trifluoromethyl)phenyl]piperazin-1-yl}sulfonyl)-2,1,3-benzoxadiazole] | ≤ 4.70 | ≤ 4.70 | 4.70 to 6.00 | 4.70 to 6.00 |  |  |
| O=S(=O)(c1ccc(Cl)c2nonc12)N1CCN(CCOCCO)CC1 [compound 185, 2-(2-{4-[(7-chloro-2,1,3-benzoxadiazol-4-yl)sulfonyl]piperazin-1-yl}ethoxy)ethanol] | ≤ 4.70 | ≤ 4.70 | 4.70 to 6.00 | 4.70 to 6.00 |  |  |
| O=S(=O)(c1ccc(N2CCN(c3ccccc3)CC2)c2nonc12)N1CCN(c2ccccc2)CC1 [compound 187, 4-(4-phenylpiperazin-1-yl)-7-[(4-phenylpiperazin-1-yl)sulfonyl]-2,1,3-benzoxadiazole] | 4.70 to 6.00 |  |  |  | ≤ 4.70 | ≤ 4.70 |
| CN1CCN(S(=O)(=O)c2ccc(Sc3cccc4cccnc34)c3nonc23)CC1 [compound 191, 8-({7-[(4-methylpiperazin-1-yl)sulfonyl]-2,1,3-benzoxadiazol-4-yl}thio)quinoline] | ≤ 4.70 |  |  |  | 4.70 to 6.00 | 4.70 to 6.00 |
| Nc1ccc(S(=O)(=O)Nc2ccnc(Cl)c2)c2nonc12 [compound 195, 7-amino-N-(2-chloropyridin-4-yl)-2,1,3-benzoxadiazole-4-sulfonamide] | ≤ 4.70 |  |  |  | ≤ 4.70 | ≤ 4.70 |
| CC1CN(c2ccc3nonc3c2S(=O)(=O)N2CC(C)OC(C)C2)CC(C)O1 (stereo not drawn) [compound 205, 5-(2,6-dimethylmorpholin-4-yl)-4-[(2,6-dimethylmorpholin-4-yl)sulfonyl]-2,1,3-benzoxadiazole] | ≤ 4.70 |  |  |  | 4.70 to 6.00 | ≤ 4.70 |
| CC1CN(c2ccc(S(=O)(=O)N3CC(C)OC(C)C3)c3nonc23)CC(C)O1 (stereo not drawn) [compound 211, 4-(2,6-dimethylmorpholin-4-yl)-7-[(2,6-dimethylmorpholin-4-yl)sulfonyl]-2,1,3-benzoxadiazole] | ≤ 4.70 |  |  |  | ≤ 4.70 | ≤ 4.70 |
| CC1CN(S(=O)(=O)c2ccc(Sc3cccc4cccnc34)c3nonc23)CC(C)O1 (stereo not drawn) [compound 213, 8-({7-[(2,6-dimethylmorpholin-4-yl)sulfonyl]-2,1,3-benzoxadiazol-4-yl}thio)quinoline] | ≤ 4.70 |  |  |  | ≤ 4.70 | 4.70 to 6.00 |
| Nc1ccc2cnn(S(=O)(=O)c3ccc(Cl)c4nonc34)c2c1 [compound 221, 1-[(7-chloro-2,1,3-benzoxadiazol-4-yl)sulfonyl]-1H-indazol-6-amine] | ≤ 4.70 |  |  |  | ≤ 4.70 | ≤ 4.70 |
| O=S(=O)(Nc1ccc2[nH]ncc2c1)c1ccc(Sc2cccc3cccnc23)c2nonc12 [compound 224, N-1H-indazol-5-yl-7-(quinolin-8-ylthio)-2,1,3-benzoxadiazole-4-sulfonamide] | ≤ 4.70 |  |  |  | ≤ 4.70 | 4.70 to 6.00 |
| O=S(=O)(c1ccc(Cl)c2nonc12)N1CCC(Oc2ccccc2C(F)(F)F)CC1 [compound 230, 4-chloro-7-({4-[2-(trifluoromethyl)phenoxy]piperidin-1-yl}sulfonyl)-2,1,3-benzoxadiazole] | 4.70 to 6.00 |  |  |  | 4.70 to 6.00 | 4.70 to 6.00 |
| CC(=O)C1(c2ccccc2)CCN(c2ccc([N+](=O)[O-])c3nonc23)CC1 [compound 231, 1-[1-(7-nitro-2,1,3-benzoxadiazol-4-yl)-4-phenylpiperidin-4-yl]ethanone] | 4.70 to 6.00 |  |  |  | 4.70 to 6.00 | ≤ 4.70 |
| O=S(=O)(c1ccc(F)c2nonc12)N1CCC(Oc2ccccc2C(F)(F)F)CC1 [compound 232, 4-fluoro-7-({4-[2-(trifluoromethyl)phenoxy]piperidin-1-yl}sulfonyl)-2,1,3-benzoxadiazole] | 4.70 to 6.00 |  |  |  | 4.70 to 6.00 | 4.70 to 6.00 |
| O=[N+]([O-])c1ccc(N2CCC(Oc3ccccc3C(F)(F)F)CC2)c2nonc12 [compound 233, 4-nitro-7-{4-[2-(trifluoromethyl)phenoxy]piperidin-1-yl}-2,1,3-benzoxadiazole] | > 6.00 |  |  |  | ≤ 4.70 | ≤ 4.70 |
| O=S(=O)(c1cccc2nonc12)N1CCC(Oc2ncccn2)CC1 [compound 235] | ≤ 4.70 |  |  |  | ≤ 4.70 | ≤ 4.70 |
| CC1(C)CCN(c2ccc([N+](=O)[O-])c3nonc23)CC1 [compound 242, 4-(4,4-dimethylpipendin-1-yl)-7-nitro-2,1,3-benzoxadiazole] | ≤ 4.70 |  | ≤ 4.70 | ≤ 4.70 |  |  |
| CC1(C)CCN(S(=O)(=O)c2ccc(F)c3nonc23)CC1 [compound 243, 4-[(4,4-dimethylpiperidin-1-yl)sulfonyl]-7-fluoro-2,1,3-benzoxadiazole] | ≤ 4.70 |  | ≤ 4.70 | > 6.00 |  |  |
| O=S(=O)(c1ccc(Sc2ccncc2)c2nonc12)N1CCC(O)(c2ccc(Cl)cc2)CC1 [compound 246, 4-(4-chlorophenyl)-1-{[7-(pyridin-4-ylthio)-2,1,3-benzoxadiazol-4-yl]sulfonyl}piperidin-4-ol] | 4.70 to 6.00 |  | 4.70 to 6.00 | ≤ 4.70 |  |  |
| O=S(=O)(Nc1cccc(F)c1F)c1ccc(Cl)c2nonc12 [compound 271, 7-chloro-N-(2,3-difluorophenyl)-2,1,3-benzoxadiazole-4-sulfonamide] | 4.70 to 6.00 | ≤ 4.70 |  |  |  |  |
| O=S(=O)(Nc1cccc(F)c1F)c1ccc(F)c2nonc12 [compound 274, N-(2,3-difluorophenyl)-7-fluoro-2,1,3-benzoxadiazole-4-sulfonamide] | 4.70 to 6.00 | ≤ 4.70 |  |  |  |  |
| O=C(OCc1ccccc1)N1CCN(c2ccc([N+](=O)[O-])c3nonc23)CC1 [compound 278, benzyl 4-(7-nitro-2,1,3-benzoxadiazol-4-yl)piperazine-1-carboxylate] | ≤ 4.70 |  |  |  | 4.70 to 6.00 | 4.70 to 6.00 |
| Nc1ccc(N2CCN(c3ncc(C(F)(F)F)cc3Cl)CC2)c2nonc12 [compound 279, 7-{4-[3-chloro-5-(trifluoromethyl)pyridin-2-yl]piperazin-1-yl}-2,1,3-benzoxadiazol-4-amine] | ≤ 4.70 |  |  |  | 4.70 to 6.00 | 4.70 to 6.00 |
| O=[N+]([O-])c1ccc(N2CCC(Oc3ncccn3)CC2)c2nonc12 [compound 280, 4-nitro-7-[4-(pyrimidin-2-yloxy)piperidin-1-yl]-2,1,3-benzoxadiazole] | ≤ 4.70 |  |  |  | ≤ 4.70 | ≤ 4.70 |
| O=[N+]([O-])c1ccc(N2CCC(c3ccncc3)CC2)c2nonc12 [compound 283, 4-nitro-7-(4-pyridin-4-ylpiperidin-1-yl)-2,1,3-benzoxadiazole] | ≤ 4.70 |  |  |  | ≤ 4.70 | ≤ 4.70 |
| CC(C)(C)c1ccc(-c2cccc3nonc23)cc1 [compound 307, 4-(4-Tert-butylphenyl)-2,1,3-benzoxadiazole] | ≤ 4.70 |  | ≤ 4.70 | ≤ 4.70 |  |  |
